Tests used:
melanoma cells = experiment: Migration, invasion, clonogenicity with excess GH; assay type: cell-based, human; conditions: up to 150 ng/ml GH
Procedure: Cell migration assays are standard methods of estimating the repair and regenerative properties of cells. In this example, the Radius Cell Migration Assay design from Cell Biolabs (Cell Biolabs #CBA-125, San Diego, Calif.) was used, and experiments were performed as per the manufacturer's protocol. In this assay, a 24-well plate containing a non-toxic, 0.68 mm biocompatible hydrogel spot is present at the center of the well, which spot prevents the attachment of cells. siRNA treated cells were trypsinized 48 hours post-transfection, counted, and seeded at 5000 cells/well in a pretreated hydrogel spot-containing 24-well plate. […] Images were captured every 24 hours using a 4× objective (total magnification 40×) employing an inverted Olympus IX70 microscope fitted with a Retiga 1300 camera (QImaging, Surrey, BC). Total uncovered area at the beginning and end of assay were quantitated using ImageJ software, Experiments were performed in triplicates.
The 96-well 3D spheroid BME cell invasion assay (Trevigen, Gaithersburg, Md.) was used to evaluate the ability of cells to invade surrounding tissue. […] The invasive behavior of the cells was monitored every 24 hours for up to 72 hours. […] Total pixels at the beginning and end of assay were quantitated using ImageJ software. […]
Colony formation on soft agar assay was next examined using a high-throughput fluorescent readout. […]

human melanoma cells = experiment: RT-qPCR of RNA levels after hGH addition or GHR-KD; assay type: cell-based
Procedure: For hGH treatment, 16 hours after seeding (or 24 hours post-transfection), the cells were serum-starved for 2 hours in serum-free growth media, and hGH (phosphate buffered saline was used as control where applicable) was added at the noted concentrations (0-, 5-, 50-, and 150 ng/ml). Cells were subsequently incubated for 24 hours before evaluating RNA levels. Recombinant hGH was purchased from Antibodies Online (#ABIN2017921, Atlanta, Ga.).
Transfection was performed using siLentFect lipid reagent (Biorad #170-3360, Hercules, Calif.) following the manufacturer's protocol. […] Mock transfections were performed using universal scrambled negative control siRNA-duplex (Origene #SR30004). TYE-563-fluorescent labeled siRNA duplex (Origene #SR30002) was used as the transfection control. Cells were trypsinized, counted using a Countess Automated Cell Counter (Life Technologies, Carlsbad, Calif.), and seeded at 25,000-30,000 cells/cm^2, the cells being allowed to attach for 16-18 hours. The growth media was replaced with fresh antibiotic free complete growth medium just prior to transfection. […] Media was changed to complete growth medium plus antibiotics after 24 hours. RNA levels were analyzed 48 hours post-transfection, and protein levels were analyzed at 60 hours post-transfection.
RNA extraction was performed using the IBI-Trizol based total RNA purification kit (MidSci #IB47632, St. Louis, Mo.), and reverse transcription was performed using Maxima First Strand cDNA synthesis kit (Thermo Fisher Scientific #K1642, Waltham, Mass.) following the manufacturers' protocols. Real time-quantitative PCR and melt curve analysis were performed using Maxima SYBR-Green qPCR master mix (Thermo Fisher Scientific #K0241) and a T100 thermal cycler (Biorad #1861096, Hercules, Calif.). RNA and DNA concentrations were estimated using a Nanodrop2000 (Thermo Fisher Scientific, Waltham, Mass.) spectrophotometer. Primers were obtained from Sigma-Aldrich for the following human genes, with primer efficiency being experimentally confirmed: GAPDH, b-Actin, GHR, GHRHR, SOCS2, IGF1, IGF1R, IGF2, IGF2R, PRL, PRLR, insulin (Ins), IR, IGFBP2, IGFBP3, EGFR, HGF, cMET and ERBB3. Each sample represented a pool of two replicates per experiment. Experiments were performed at least three times. Each qPCR for individual genes and every treatment for every cell type was performed in triplicates.
And so—referring now to FIGS. 12A-12B, 17A-17C, 18A-18F, 19A-19F, and 20A-20F—RT-qPCR analysis of GH-IGF axis in human melanoma cells (FIGS. 12A-12B) and RT-qPCR analysis of GH-GHR and PRL-PRLR pairs in human melanoma cells (FIGS. 17A-17C) was performed. […] The percentage free area at the end time point was calculated using ImageJ software and reflected the decrease/inhibition in migration. […]

[1] = SK-MEL-28 and MALME-3M, maximum GH concentrations

## hGH: Recombinant human growth hormone, Antibodies Online #ABIN2017921
Melanoma cells
  melanoma migration, invasion, or clonogenicity upon incubation with excess GH: No marked increase
Human melanoma cells; 50 ng/mL GH, with anti-cancer drugs
  level of decrease of some ABC-transporters in presence of GH: ~2 fold
Human melanoma cells; GH stimulation or GHR-KD
  ERBB3 RNA levels: upregulation
Human melanoma cells; [1]
  HGF expression level upregulated with added GH: more than 2 fold
  MET expression level upregulated with added GH: more than 2 fold

Source: patent US11473088B2, “Method of treating cancer and method of sensitizing cancer cells to the action of chemotherapeutic agents via growth hormone receptor antagonists or knock down” (Ohio University, priority 2016, dated 2022)
